Consider 25 molecules from patent US7265103B2, “Substituted amino isoxazoline derivatives and their use as anti-depressants” (Janssen Pharmaceutica NV., priority 2002, dated 2007).

One test addresses T1, hα2C receptor (Homo sapiens, UniProt P18825).
T1 construct: expressed in transfected cells; host or cells: CHO cells
T1 sequence (P18825 1-462): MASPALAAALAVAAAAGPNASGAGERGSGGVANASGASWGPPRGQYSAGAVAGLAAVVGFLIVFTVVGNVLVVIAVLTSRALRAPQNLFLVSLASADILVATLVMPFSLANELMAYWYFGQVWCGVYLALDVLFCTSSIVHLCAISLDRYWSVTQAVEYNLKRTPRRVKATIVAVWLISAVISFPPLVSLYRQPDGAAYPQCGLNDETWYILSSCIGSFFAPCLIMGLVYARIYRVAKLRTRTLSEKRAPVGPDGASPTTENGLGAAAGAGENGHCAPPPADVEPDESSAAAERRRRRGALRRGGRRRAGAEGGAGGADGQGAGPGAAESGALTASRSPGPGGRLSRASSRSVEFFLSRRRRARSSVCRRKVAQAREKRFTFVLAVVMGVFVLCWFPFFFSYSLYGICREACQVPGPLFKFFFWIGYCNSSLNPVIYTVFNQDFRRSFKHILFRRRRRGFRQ
The experiment in a line: Radioligand binding experiment for α2C-adrenergic receptor ([3H]-raulwolscine). Conditions: CHO cell membranes with human α2C receptor, [3H]raulwolscine 1 nM; read-out: pIC50 α2C (converted). How it is done:
(§1) The interaction of the compounds of Formula (I) with hα2-receptors and h5-HT-transporters was assessed in in vitro radioligand binding experiments. In general, a low concentration of a radioligand with a high binding affinity for a particular receptor or transporter is incubated with a sample of a tissue preparation enriched in a particular receptor or transporter or with a preparation of cells expressing cloned human receptors in a buffered medium. During the incubation, the radioligand binds to the receptor or transporter. When equilibrium of binding is reached, the receptor bound radioactivity is separated from the non-bound radioactivity, and the receptor- or transporter-bound activity is counted. The interaction of the test compounds with the receptor is assessed in competition binding experiments. Various concentrations of the test compound are added to the incubation mixture containing the receptor- or transporter preparation and the radioligand. The test compound in proportion to its binding affinity and its concentration inhibits binding of the radioligand. The radioligand used for hα2A, hα2B and hα2C receptor binding was [^3H]-raulwolscine and for the h5-HT transporter was [^3H]paroxetine.
(§2) CHO cells, stabile transfected with human adrenergic-α2A-, -α2B or α2C receptor cDNA, were cultured in Dulbecco's Modified Eagle's Medium (DMEM)/Nutrient mixture Ham's F12 (ratio 1:1)(Gibco, Gent-Belgium) supplemented with 10% heat inactivated fetal calf serum (Life Technologies, Merelbeke-Belgium) and antibiotics (100 IU/ml penicillin G, 100 μg/ml streptomycin sulphate, 110 μg/ml pyruvic acid and 100 μg/ml L-glutamine). One day before collection, cells were induced with 5 mM sodiumbutyrate. Upon 80-90% of confluence, cells were scraped in phosphate buffered saline without Ca^2+ and Mg^2+ and collected by centrifugation at 1500×g for 10 min. The cells were homogenised in Tris-HCl 50 mM using an Ultraturrax homogenizer and centrifuged for 10 min at 23,500×g. The pellet was washed once by resuspension and rehomogenization and the final pellet was resuspended in Tris-HCl, divided in 1 ml aliquots and stored at −70° C.
(§3) Membranes were thawed and re-homogenized in incubation buffer (glycylglycine 25 mM, pH 8.0). In a total volume of 500 μl, 2-10 μg protein was incubated with [^3H]raulwolscine (NET-722) (New England Nuclear, USA) (1 nM final concentration) with or without competitor for 60 min at 25° C. followed by rapid filtration over GF/B filter using a Filtermatel 96 harvester (Packard, Meriden, Conn.). Filters were rinsed extensively with ice-cold rinsing buffer (Tris-HCl 50 mM pH 7.4). Filter-bound radioactivity was determined by scintillation counting in a Topcount (Packard, Meriden, Conn.) and results were expressed as counts per minute (cpm). Non-specific binding was determined in the presence of 1 μM oxymetazoline for hα2A- and hα2B receptors and 1 μM spiroxatrine for hα2C receptors.
(§4) Data from assays in the presence of compound were calculated as a percentage of total binding measured in the absence of test compound. Inhibition curves, plotting percent of total binding versus the log value of the concentration of the test compound, were automatically generated, and sigmoidal inhibition curves were fitted using non-linear regression. The pIC50 values of test compounds were derived from individual curves.

The target in the next test is T2, h5-HT transporter (Homo sapiens, UniProt P31645).
T2 construct: Human platelet membranes (Oceanix Biosciences Corporation, Hanover, Md., USA) were thawed; tissue Oceanix Biosciences Corporation; host or cells: human platelet membranes
The experiment in a line: Radioligand binding experiment for 5-HT transporter ([3H]paroxetine). Conditions: human platelet membranes, [3H]paroxetine 0.5 nM. How it is done: as §1
Human platelet membranes (Oceanix Biosciences Corporation, Hanover, Md., USA) were thawed, diluted in buffer (Tris-HCl 50 mM, 120 mM NaCl and 5 mM KCl) and quickly (max 3 s) homogenised with an Ultraturrax homogenizer. In a total volume of 250 μL, 50-100 μg protein was incubated with [^3H]paroxetine (NET-869) (New England Nuclear, USA) (0.5 nM final concentration) with or without competitor for 60 min at 25° C. Incubation was stopped by rapid filtration of the incubation mixture over GF/B filters, pre-wetted with 0.1% polyethyleneamine, using a Filtermatel 96 harvester (Packard, Meriden, Conn.). Filters were rinsed extensively with ice-cold buffer and radioactivity on the filters was counted in a Topcount liquid scintillation counter (Packard, Meriden, Conn.). Data were expressed as cpm. Imipramine (at 1 μM final concentration) was used to determine the non-specific binding.
as §4

Another test deals with T3, hα2A receptor (Homo sapiens, UniProt P08913).
T3 construct: expressed in transfected cells; host or cells: CHO cells
T3 sequence (P08913 1-465): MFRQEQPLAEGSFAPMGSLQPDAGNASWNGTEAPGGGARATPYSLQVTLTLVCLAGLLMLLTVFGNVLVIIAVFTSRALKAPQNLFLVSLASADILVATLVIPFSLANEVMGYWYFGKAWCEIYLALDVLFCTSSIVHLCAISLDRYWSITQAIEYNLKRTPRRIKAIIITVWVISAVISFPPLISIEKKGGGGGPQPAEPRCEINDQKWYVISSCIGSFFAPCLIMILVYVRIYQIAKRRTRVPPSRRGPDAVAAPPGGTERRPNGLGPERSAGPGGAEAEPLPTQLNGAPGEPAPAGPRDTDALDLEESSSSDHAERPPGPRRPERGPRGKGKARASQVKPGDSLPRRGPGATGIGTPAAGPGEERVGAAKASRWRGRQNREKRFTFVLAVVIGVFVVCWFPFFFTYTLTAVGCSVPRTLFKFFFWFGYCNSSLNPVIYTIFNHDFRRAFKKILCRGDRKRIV
The experiment in a line: Radioligand binding experiment for α2A-adrenergic receptor ([3H]-raulwolscine). Particulars: CHO cell membranes with human α2A receptor, [3H]raulwolscine 1 nM; read-out: pIC50 α2A (converted). How it is done: as §1, §2, §3, §4

T2 sequence (P31645 whole entry): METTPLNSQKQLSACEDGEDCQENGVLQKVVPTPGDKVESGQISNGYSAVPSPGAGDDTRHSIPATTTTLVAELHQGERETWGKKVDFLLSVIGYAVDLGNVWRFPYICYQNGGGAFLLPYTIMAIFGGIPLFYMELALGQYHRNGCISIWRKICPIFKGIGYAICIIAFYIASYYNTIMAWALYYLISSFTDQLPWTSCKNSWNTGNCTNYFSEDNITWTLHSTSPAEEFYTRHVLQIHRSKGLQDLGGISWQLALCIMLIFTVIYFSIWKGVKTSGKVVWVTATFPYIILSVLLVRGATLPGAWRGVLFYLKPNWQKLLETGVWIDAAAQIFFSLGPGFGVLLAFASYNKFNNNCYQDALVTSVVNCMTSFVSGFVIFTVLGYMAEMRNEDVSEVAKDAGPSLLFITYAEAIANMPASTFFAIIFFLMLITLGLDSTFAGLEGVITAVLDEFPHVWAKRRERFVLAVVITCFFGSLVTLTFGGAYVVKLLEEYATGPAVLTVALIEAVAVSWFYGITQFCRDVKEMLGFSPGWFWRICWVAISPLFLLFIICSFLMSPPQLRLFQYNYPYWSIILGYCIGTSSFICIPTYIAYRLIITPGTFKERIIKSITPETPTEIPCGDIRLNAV

For the molecule `COc1cc2c(cc1N(C)CCN(C)C)OCC1C2=NOC1CN1CCN(C/C(C)=C/c2ccccc2)CC1` (stereo not drawn) [Compound 11], the IC50 at hα2C receptor is 1.58 nM; at h5-HT transporter, 3.16 nM; on hα2A receptor, 2 nM.
For `CCC(C)CNc1cc2c(cc1OC)C1=NOC(CN3CCN(CC(C)=Cc4ccc(F)cc4)CC3)C1CO2` (stereo not drawn) [Compound 104], the results for the IC50 on hα2C receptor, on h5-HT transporter and on hα2A receptor were 126 nM, 316 nM and 126 nM, respectively.
In the case of `COc1cc2c(cc1Nc1ccncc1)OCC1C2=NOC1CN1CCN(CC(C)=Cc2ccc(F)cc2)CC1` (stereo not drawn) [Compound 100], the IC50 was 5.01 nM at hα2C receptor, 10 nM on h5-HT transporter and 10 nM at hα2A receptor.
Regarding `CC(=Cc1ccc(F)cc1)CN1CCN(CC2ON=C3c4ccc(N5CCC(C)C5=O)cc4OCC32)CC1` (stereo not drawn) [Compound 139], the IC50 at hα2C receptor is 7.94 nM; at h5-HT transporter, 126 nM; on hα2A receptor it was 15.8 nM.
For the molecule `CC(=Cc1ccccc1)CN1CCN(CC2ON=C3c4ccc(N(C)CCO)cc4OCC32)CC1` (stereo not drawn) [Compound 31], the IC50 is 1.26 nM at hα2C receptor, 25.1 nM at h5-HT transporter and 1.26 nM at hα2A receptor.
As for `CC(=Cc1ccc(F)cc1)CN1CCN(CC2ON=C3c4ccc(NCCN5CCOCC5)cc4OCC32)CC1` (stereo not drawn) [Compound 30], the results for the IC50 on hα2C receptor, at h5-HT transporter and on hα2A receptor were 3.98 nM, 10 nM and 50.1 nM, respectively.
For `CC(=Cc1ccc(F)cc1)CN1CCN(CC2ON=C3c4ccc(N5CCC5=O)cc4OCC32)CC1` (stereo not drawn) [Compound 69], in that order: 1.26 nM, 20 nM and 3.16 nM.
The corresponding values for `CC(=Cc1ccc(F)cc1)CN1CCN(CC2ON=C3c4ccc(N(C)CCNC5CCC5)cc4OCC32)CC1` (stereo not drawn) [Compound 111] are 6.31 nM, 12.6 nM and 25.1 nM.
As to `CC(=Cc1ccc(F)cc1)CN1CCN(CC2ON=C3c4ccc(NCCO)cc4OCC32)CC1` (stereo not drawn) [Compound 37], the IC50 was 5.01 nM at hα2C receptor, 63.1 nM at h5-HT transporter and 3.16 nM on hα2A receptor.
In the case of `CC(=Cc1ccc(F)cc1)CN1CCN(CC2ON=C3c4ccc(N(C)CCO)cc4OCC32)CC1` (stereo not drawn) [Compound 38], the IC50 was 1.58 nM on hα2C receptor, 12.6 nM at h5-HT transporter and 79.4 nM on hα2A receptor.
The corresponding values for `CC(=Cc1ccc(F)cc1)CN1CCN(CC2ON=C3c4ccc(N(C)CCOC(=O)C5CCC5)cc4OCC32)CC1` (stereo not drawn) [Compound 108] are 50.1 nM, 79.4 nM and 200 nM.
`CC(=Cc1ccccc1)CN1CCN(CC2ON=C3c4ccc(N(C)CCO)cc4OCC32)CC1` (single isomer, unassigned) [Compound 34]: the IC50 at hα2C receptor was 0.398 nM; at h5-HT transporter, 63.1 nM; on hα2A receptor it was 2 nM.
Regarding `CC(=Cc1ccccc1)CN1CCN(CC2ON=C3c4ccc(N(C)Cc5ccccc5)cc4OCC32)CC1` (stereo not drawn) [Compound 48], the figures for the IC50 at hα2C receptor, at h5-HT transporter and at hα2A receptor were 31.6 nM, 158 nM and 39.8 nM, respectively.
For `CNc1cc2c(cc1OC)C1=NOC(CN3CCN(CC(C)=Cc4cccc(F)c4)CC3)C1CO2` (stereo not drawn) [Compound 17], in that order: 2 nM, 12.6 nM and 7.94 nM.
The corresponding values for `CCNC(=O)N(C(=O)NCC)c1ccc2c(c1)OCC1C2=NOC1CN1CCN(CC(C)=Cc2ccc(F)cc2)CC1` (stereo not drawn) [Compound 60] are 398 nM, 6310 nM and 3160 nM.
For `CCC(CC)Nc1cc2c(cc1OC)C1=NOC(CN3CCN(CC(C)=Cc4ccc(F)cc4)CC3)C1CO2` (stereo not drawn) [Compound 98], in that order: 100 nM, 251 nM and 126 nM.
`COc1cc2c(cc1N(C)CCO)OCC1C2=NOC1CN1CCN(CC(C)=Cc2ccc(F)cc2)CC1` (stereo not drawn) [Compound 39]: the IC50 on hα2C receptor is 10 nM; on h5-HT transporter, 79.4 nM; at hα2A receptor it was 50.1 nM.
For `CC(=Cc1ccc(F)cc1)CN1CCN(CC2ON=C3c4ccc(N(C)CCN(C)C)cc4OCC32)CC1` (stereo not drawn) [Compound 23], in that order: 2 nM, 5.01 nM and 10 nM.
With `C/C(=C\c1ccccc1)CN1CCN(CC2ON=C3c4ccc(NC(=O)[C@H]5CCCN5)cc4OCC32)CC1` (stereo partly drawn) [Compound 56], the IC50 is 0.501 nM on hα2C receptor, 12.6 nM at h5-HT transporter and 3.16 nM on hα2A receptor.
For `CCCCCNc1ccc2c(c1)OCC1C2=NOC1CN1CCN(CC(C)=Cc2ccc(F)cc2)CC1` (stereo not drawn) [Compound 133], in that order: 126 nM, 126 nM and 126 nM.
As to `COc1cc2c(cc1N(C)CCO)OCC1C2=NOC1CN1CCN(CC(C)=Cc2ccccc2)CC1` (stereo not drawn) [Compound 32], the IC50 on hα2C receptor is 0.794 nM; at h5-HT transporter, 20 nM; on hα2A receptor, 3.98 nM.
For `CCC(C)Nc1cc2c(cc1OC)C1=NOC(CN3CCN(CC(C)=Cc4ccc(F)cc4)CC3)C1CO2` (stereo not drawn) [Compound 99], in that order: 50.1 nM, 158 nM and 50.1 nM.
For `CC(=Cc1ccc(F)cc1)CN1CCN(CC2ON=C3c4ccc(N5CC=CCC5)cc4OCC32)CC1` (stereo not drawn) [Compound 135], in that order: 25.1 nM, 79.4 nM and 39.8 nM.
The corresponding values for `COc1cc2c(cc1N1CCOCC1)OCC1C2=NOC1CN1CCN(CC(C)=Cc2cccc(F)c2)CC1` (stereo not drawn) [Compound 83] are 2.51 nM, 15.8 nM and 7.94 nM.
Take `CC(=Cc1ccc(F)cc1)CN1CCN(CC2ON=C3c4ccc(N(C)CCOC(=O)CC(C)(C)C)cc4OCC32)CC1` (stereo not drawn) [Compound 117]: the IC50 was 126 nM on hα2C receptor, 100 nM at h5-HT transporter and 251 nM at hα2A receptor.
